# Assay: ABTS-assay, inhibition of radical formation
# Type: biochemical
# Details: for IC50: absorption at 734 nm, mean value from at least 2 independent tests
# Description: By means of the ABTS-assay the anti-oxidative capacity of 4-hydroxyacetophenone and alpha-tocopherol was compared. 2,2′-azino bis-(3-ethylbenzothiazoline 6-sulfonic acid) (ABTS) was transformed by potassium persulfate into the blue-green radical cation ABTS•^+. Through the addition of 4-hydroxyacetophenone and alpha-tocopherol the radical cations were reduced and discoloration was observed, which was determined photometrically by Absorption at 734 nm. The inhibition of the radical formation of the test substance is calculated by the following formula:
# [formula] Wherein the abbreviations have the following meanings: • Atest substance: Absorption of the wells with test substance including 4-hydroxyacetophenone and alpha-tocopherol • Acontrol: Absorption of the wells without test substance
# From the inhibition of the radical formation [%] in a series of dilutions of tested samples the IC50 was calculated. This is the concentration at which the radical formation is inhibited by 50%.
IC50 [µM],fold higher IC50 value than alpha-tocopherol [fold],Structure (SMILES),antioxidant activity compared with alpha-tocopherol (in words)
26.8,,"Cc1c(C)c2c(c(C)c1O)CC[C@@](C)(CCC[C@H](C)CCC[C@H](C)CCCC(C)C)O2 [alpha-tocopherol, reference compound]",
262,10,CC(=O)c1ccc(O)cc1 [4-hydroxyacetophenone],much weaker antioxidant activity

# — patent publication US11540987B2, “Composition with stabilized taste and odor (II)” (SYMRISE AG, priority 2015, dated 2023)
